According to ChEMBL document CHEMBL3045885, “Evaluation of antileishmanial activities of triglycerides isolated from roots of Moringa stenopetala” (Med Chem Res, 2013):
In brackets after ≈: the same amount, converted by molar mass.

Key:
Leishmania aethiopica [1] = test: Antileishmanial activity against amastigote form of Leishmania aethiopica MHOM/ET/82/117-82 infected in BALB/c mouse peritoneal exudate macrophages after 5 days; assay type: functional, organism-based; details: MHOM/ET/82/117-82, 120 h
Leishmania aethiopica [2] = test: Antileishmanial activity against promastigote form of Leishmania aethiopica MHOM/ET/82/117-82 […] after 72 hr; assay type: functional, organism-based; details: MHOM/ET/82/117-82, 72 h

| IC50 (Leishmania aethiopica [1]) | IC50 (Leishmania aethiopica [2]) | Compound |
| --- | --- | --- |
| 26.8 µg/mL (≈ 30.3 µM) | 242 µg/mL (≈ 274 µM) | CCCCC/C=C\C/C=C\CCCCCCCC(=O)OC(COC(=O)CCCCCCC/C=C\CCCCCCCC)COC(=O)CCCCCCC/C=C\CCCCCCCC |
| 40 µg/mL (≈ 45.4 µM) | 0.079 µg/mL (≈ 0.0896 µM) | CCCCC/C=C\C/C=C\CCCCCCCC(=O)OCC(COC(=O)CCCCCCC/C=C\C/C=C\CCCCC)OC(=O)CCCCCCC/C=C\CCCCCCCC |
| 0.032 µg/mL (≈ 0.0346 µM) | 0.004 µg/mL (≈ 0.00433 µM) | C[C@@H]1[C@H](O)[C@@H](C)/C=C/C=C/C=C/C=C/C=C/C=C/C=C/[C@H](O[C@@H]2O[C@H](C)[C@@H](O)[C@H](N)[C@@H]2O)C[C@@H]2O[C@](O)(C[C@@H](O)C[C@@H](O)[C@H](O)CC[C@@H](O)C[C@@H](O)CC(=O)O[C@H]1C)C[C@H](O)[C@H]2C(=O)O [AMPHOTERICIN B] |
| 0.121 µg/mL (≈ 0.297 µM) | 0.136 µg/mL (≈ 0.334 µM) | CCCCCCCCCCCCCCCCOP(=O)([O-])OCC[N+](C)(C)C [MILTEFOSINE] |
